Results published in patent publication US12161641B2, “Treatments and prevention of opioid neonatal abstinence syndrome” (Ohio State Innovation Foundation, priority 2016, dated 2024).

Tests used:
[1] = Cumulative injections of 6β-naltrexol: tissue levels, 1 versus 4 injections; format: in vivo, mice
Protocol: While 6β-naltrexol is relatively excluded from adult brain, it might accumulate slowly upon multiple dosing because of slow exit from the brain. Therefore, experiments were conducted to determine whether 6β-naltrexol accumulates in tissues over time after chronic delivery, and especially through retention in adult brain. After 4 injections of 6β-naltrexol over a 24 hr period (every 6 hrs), 6β-naltrexol levels were measured in fetal and maternal tissues 4 hrs after the last dose, and accumulation assessed in comparison to a single injection with a 4 hr survival. […] However, this was not significant (p>0.2). Also, 6β-naltrexol trended towards greater accumulation in liver than brain (p=0.084 for comparison of adult liver vs adult brain after 4 injections). Likewise, 6β-naltrexol trended towards greater accumulation in embryos than adults (p=0.063 for comparison of fetal vs adult brain after 4 injections).

[2] = Drug levels in plasma, brain and liver during postnatal development; settings: for Plasma levels: 45 minutes after single injection; for Brain / Liver / Plasma: single injection
Protocol: Drugs were dissolved in saline at concentrations between 10 and 20 mg/ml, and all dilutions were made in saline. Morphine was purchased from the Ohio State Medical Center pharmacy as a 15 mg/ml solution in saline. Animals were injected subcutaneously in the region around the right hind-quarters. […] After injection and variable survival times adult and pregnant mice were euthanized by cervical dislocation, and brain, liver and plasma were collected, quickly frozen on dry-ice and stored at −70° C. until processing After euthanizing the dam, embryos were collected into a large (150×15 mm) petri dish and kept on ice while maternal tissues were processed. All embryonic tissues were then dissected and collected in a cold room at 4° C. in order to facilitate and preserve tissue integrity during dissection, then stored at −70° C. […] Samples were later thawed, processed and analyzed via liquid chromatography-tandem mass spectrometry (LC-MS/MS) to quantify levels of drug. Detailed methods for tissue processing and LC-MS/MS analysis are located in the supplemental information.

[3] = Weight gain during 6 day morphine dosing schedule; format: in vivo, mice; settings: increasing concomitant doses with morphine; 6 day dosing schedule
Protocol: Total jumps were counted over a period of 15 minutes starting immediately after the injection of naloxone to induce withdrawal. Two concentration ramping procedure were used for the morphine injections with commensurate ramping of 6β-naltrexol. Data are plotted using the lower of the two drug concentrations. Asterisks indicate a significant difference compared to morphine treated animals with no 6β-naltrexol; *p<0.05; **p<0.01. […] Bidirectional arrows indicate the time bin for each 6β-naltrexol dose where an equal number of jumps occur prior to and after that time bin. Note that this timepoint increases with increasing 6β-naltrexol. Asterisk indicates a significant effect of the 1/3000, 1/1000, and 1/200 doses of 6β-naltrexol compared to morphine-alone in the first three time bins. […] The mass of each mouse was determined before and after the 6 day morphine dosing schedule and the percent weight change was determined. Asterisk indicates significant difference from animals that received morphine but no (“0”) 6β-naltrexol (p<0.05). In FIG. 3A, the number in parentheses indicates the number of animals tested at each drug concentration. […]
Animals were injected with morphine alone or morphine mixed with increasing amounts of 6β-naltrexol. […] Withdrawal jumping was videotaped and jumps were scored in a 15 minute interval. […]

[4] = adult mice; 10 minutes after injection; cited from earlier work

For `Oc1ccc2c3c1O[C@H]1[C@H](O)CC[C@@]4(O)[C@@H](C2)N(CC2CC2)CC[C@]314` [6β-naltrexol], the “increase of 6β-naltrexol after cumulative injections, average for all tissues” value ([1]; 4 injections over 24 hr vs single injection, 4 hr survival, not significant (p>0.2)) was roughly 1.5 fold, the “6β-naltrexol level, Adult Brain, 1 injection” value ([1]; adult brain, 1 injection of 10 mg/kg, 4 hr survival) was 110 and the “6β-naltrexol level, Adult Brain, 4 injections in 24 hrs” value ([1]; adult brain, 4 injections of 10 mg/kg in 24 hrs, 4 hr survival after last dose) was 160. For the same compound, the “6β-naltrexol level, Adult Liver, 1 injection” value ([1]; adult liver, 1 injection of 10 mg/kg, 4 hr survival) was 280, the “6β-naltrexol level, Adult Liver, 4 injections in 24 hrs” value ([1]; adult liver, 4 injections of 10 mg/kg in 24 hrs, 4 hr survival after last dose) was 360 and the “6β-naltrexol level, Embryo Brain, 1 injection” value ([1]; embryo brain, 1 injection of 10 mg/kg, 4 hr survival) was 210. For the same compound, the “6β-naltrexol level, Embryo Brain, 4 injections in 24 hrs” value ([1]; embryo brain, 4 injections of 10 mg/kg in 24 hrs, 4 hr survival after last dose) was 290, the “6β-naltrexol level, Embryo Liver, 1 injection” value ([1]; embryo liver, 1 injection of 10 mg/kg, 4 hr survival) was 250 and the “6β-naltrexol level, Embryo Liver, 4 injections in 24 hrs” value ([1]; embryo liver, 4 injections of 10 mg/kg in 24 hrs, 4 hr survival after last dose) was 500. The “6β-naltrexol level, Plasma, 1 injection” value ([1]; plasma, 1 injection of 10 mg/kg, 4 hr survival) was 40, the “6β-naltrexol level, Plasma, 4 injections in 24 hrs” value ([1]; plasma, 4 injections of 10 mg/kg in 24 hrs, 4 hr survival after last dose) was 60 and the Plasma levels ([2]; PD7) was 3660+350 ng/ml. The “Brain:Plasma Kp ratio” value ([2]; PD7, survival time 45 min) was 0.86, the “Liver:Plasma Kp ratio” value ([2]; PD7, survival time 45 min) was 4.3 and the Brain ([2]; PD7, survival time 45 min) was 3030 ± 340 ng/g. For the same compound, the Liver ([2]; PD7, survival time 45 min) was 15220 ± 1750 ng/g, the Plasma ([2]; PD7, survival time 45 min) was 3513 ng/mL and the “Brain:Plasma Kp ratio” value ([2]; PD14, survival time 45 min) was 2. The “Liver:Plasma Kp ratio” value ([2]; PD14, survival time 45 min) was 3.6, the Brain ([2]; PD14, survival time 45 min) was 2860 ± 800 ng/g and the Liver ([2]; PD14, survival time 45 min) was 5050 ± 1260 ng/g. The Plasma ([2]; PD14, survival time 45 min) was 1410 ± 370 ng/mL, the “Brain:Plasma Kp ratio” value ([2]; PD20, survival time 20 min) was 0.33 and the “Liver:Plasma Kp ratio” value ([2]; PD20, survival time 20 min) was 1.7. For the same compound, the Brain ([2]; PD20, survival time 20 min) was 350 ± 20 ng/g, the Liver ([2]; PD20, survival time 20 min) was 1830 ± 70 ng/g and the Plasma ([2]; PD20, survival time 20 min) was 1070 ± 100 ng/mL. The “brain:plasma KP ratios” value ([2]; PD20 and older) was 0.22-0.35, the Plasma levels ([2]; PD32) was 170+30 ng/ml and the “Brain:Plasma Kp ratio” value ([2]; PD32, survival time 20 min) was 0.22. For the same compound, the “Liver:Plasma Kp ratio” value ([2]; PD32, survival time 20 min) was 1.3, the Brain ([2]; PD32, survival time 20 min) was 260 ± 80 ng/g and the Liver ([2]; PD32, survival time 20 min) was 1510 ± 640 ng/g. The Plasma ([2]; PD32, survival time 20 min) was 1160 ± 730 ng/mL, the “Brain:Plasma Kp ratio” value ([2]; PD50, survival time 45 min) was 0.35 and the “Liver:Plasma Kp ratio” value ([2]; PD50, survival time 45 min) was 1.9. It also gave a Brain ([2]; PD50, survival time 45 min) of 150 ± 10 ng/g, a Liver ([2]; PD50, survival time 45 min) of 820 ± 80 ng/g and a Plasma ([2]; PD50, survival time 45 min) of 430 ± 40 ng/mL. The Plasma levels ([2]; adults) was 930+220 ng/ml, the “liver:plasma KP ratios” value ([2]; all ages) was 1.3-4.2 and the “effect on inhibition of weight gain by morphine” value [3] was “alleviated”. For the same compound, the “brain levels lower than plasma levels” value [4] was roughly 10 fold.
